From patent publication US10954253B2, “1,2-dihydro-3H-pyrazolo[3,4-d]pyrimidin-3-one derivative as Wee1 inhibitor” (SHIJIAZHUANG SAGACITY NEW DRUG DEVELOPMENT CO., LTD., priority 2017, dated 2021)
≈ marks a conversion by molar mass, not a printed value. Like-named read-outs stand apart in the source and are kept apart here.

How the values were obtained:
[1] = Tissue distribution (PK) in BALB/c nude mice bearing human colon cancer LoVo xenografts; type: in vivo; conditions: mouse, LoVo xenograft mice, oral 40 mg/kg twice a day for three weeks, after last administration
Experimental: (1) In vivo PD study of the compound used on tumors of human colon cancer LoVo cells subcutaneously xenografted to BALB/c nude mice model
Experimental method: the experimental animals used were BALB/c nude mice (provided by Shanghai Xipuer-Beikai Experimental animal CO., Ltd), 6-8 weeks old, weighting 18-22 g.
Human colon cancer LoVo cells, monolayer-cultured in vitro, culturing condition was Ham's F-12 medium supplemented with 10% fetal bovine serum, 100 U/mL penicillin, 100 μg/mL streptomycin and 2 mM glutamine, 37° C., 5% CO2. Conventional digestion treatment passage was done with trypsin-EDTA twice a week. When the cell saturation reached 80%-90%, the cells were collected, counted, and inoculated. 0.1 mL (10×106) of LoVo cells were subcutaneously inoculated into the right back of each nude mouse, and group administration was started when the average tumor volume reached 213 mm^3. The administration mode was oral administration, 40 mg/kg twice a day for three consecutive weeks.
After the last administration of the experiment, a portion of plasma, tumor, intestine, brain, lung, liver and pancreas was collected from the number 1-2 animals after 0.5 h of administration, and quick-froze for PK detection; a portion of plasma, tumor, intestine, brain, lung, liver and pancreas was collected from the number 3-4 animals after 2 h of administration, and quick-froze for PK detection; a portion of plasma, tumor, intestine, brain, lung, liver and pancreas was collected from the number 5-6 animals after 8 h of administration, and quick-froze for PK detection. The tumor, intestine, brain, lung, liver and pancreas were weighted separately and added 9 times volumes of homogenate MeOH/15 mM PBS (1:2, v:v) for homogenization. 20 μL sample was added into 300 μL of the stop buffer including internal standard for protein precipitation, and shaked to mix well. The mixture was centrifuged at 13,000 rpm for 10 minutes at 20-25° C., and 3 μL of the supernatant was taken for LCMS analysis.

[2] = Pharmacokinetic evaluation in BALB/c mice after intravenous and oral administration; type: in vivo; conditions: mouse, plasma, BALB/c mice (female), single intravenous injection and oral administration
Experimental: Experimental objective: pharmacokinetics evaluation of the compound in BALB/c nude mice.
The rodent pharmacological characteristics of the compound after intravenous administration and oral administration were tested by a standard protocol, the candidate compound in the experiment was formulated into a clear solution, and the mice were administered by a single intravenous injection and oral administration. The intravenous and oral vehicles are a certain proportion of aqueous hydroxypropyl 3-cyclodextrin or physiological saline solution.

[3] = Thermodynamic solubility determination; type: physicochemical; conditions: buffer, 22 °C, aqueous buffer, thermodynamic from solid
Experimental: No less than 2 mg sample powder was weighted in a Whatman miniuniprep vial. If the experiment required to test the thermodynamic solubility of the sample in multiple buffer solutions, then separate vial was required for each test.
[…] After addition of the buffer, the Whatman filter cap of the miniuniprep is mounted and pressed until it was above the liquid level to allow the filter to contact with the buffer solution during shaking. The solubility sample was vortexed for 2 minutes. And the solution phenomenon was recorded. Then the vial was shaked at room temperature (about 22 to 25° C.) for 24 hours at a speed of 550 rpm. And the Whatman Miniunipreps filter cap was pressed to bottom to obtain the filtrate of the solubility solution of the sample. All sample vials should conduct filtration for the insoluble matter before and after and osmotic phenomenon. The […] was diluted 50 times to obtain a sample dilution.
Three UV standard solutions were injected from low to high concentrations into HPLC, and then dilution and supernatant of the test compounds were injected. The sample was injected and tested twice. Integration was conducted to the UV peaks. The standard curve was established and the thermodynamic solubility of the sample was calculated.

AUC(0-t) ([1]; Colon): 225 µM·h | Cmax ([1]; Colon): 238 µM | Tmax ([1]; Colon): 30 min | AUC(0-t) ([1]; liver): 117 µM·h | Cmax ([1]; liver): 38.1 µM | Tmax ([1]; liver): 30 min | AUC(0-t) ([1]; lung): 36.5 µM·h | Cmax ([1]; lung): 17.2 µM | Tmax ([1]; lung): 30 min | AUC(0-t) ([1]; pancreas): 55.5 µM·h | Cmax ([1]; pancreas): 35.6 µM | Tmax ([1]; pancreas): 30 min | AUC(0-t) ([1]; plasma): 6.97 µM·h | Cmax ([1]; plasma): 3.07 µM | Tmax ([1]; plasma): 30 min | AUC(0-t) ([1]; tumer (tumor)): 15.3 µM·h | Cmax ([1]; tumer (tumor)): 3.85 µM | Tmax ([1]; tumer (tumor)): 120 min | clearance ([2]; read-out: Clearance rate): 85.7 mL/min/kg | AUC ([2]; read-out: Concentration integral AUC): 1.2 µM·h | half-life ([2]; read-out: Half-life T1/2 (converted)): 15 min | bioavailability ([2]; read-out: bioavailability F): 31% | solubility at 24 h ([3]; pH 6.5, shaken 24 hours at room temperature, read-out: Solubility (μM) pH 6.5): 434 µM (≈ 217 µg/mL) | solubility at 24 h ([3]; pH 7.4, shaken 24 hours at room temperature, read-out: Solubility (μM) pH 7.4): 68.8 µM (≈ 34.4 µg/mL)
SMILES: C=CCn1c(=O)c2cnc(Nc3ccc(N4CCN(C)CC4)cc3)nc2n1-c1cccc(C(C)(C)O)n1 [AZD1775, reference compound]
